The assay concerns BDF1 mice, P288 methotrexate-resistant leukemia, survival T/C. The experiment in a line: NCI In Vivo Anticancer Drug Screen. Data for tumor model P288 Lymphocytic Leukemia resistant to methotrexate; NSC 740 (intraperitoneal) in B6D2F1 (BDF1) mice. Particulars: endpoint: median survival time, schedule: Q01DX010 (ip), higher = longer survival. The protocol:
The antitumor activity of compounds was measured in mice bearing transplantable tumors. Survival or tumor size were measured and the results are expressed as the measurement made in the treated group (T) divided by the measurement made in the vehicle treated control group (C). The tumor model used in this assay is P288 Lymphocytic Leukemia resistant to methotrexate; NSC 740 (intraperitoneal) in B6D2F1 (BDF1) mice

[1] abbreviates: dose: 10.0 mg/kg/injection, vehicle: saline.
Where [2] appears, read: dose: 20.0 mg/kg/injection, vehicle: saline.
Where [3] appears, read: dose: 5.0 mg/kg/injection, vehicle: saline.
[4] abbreviates: dose: 1.5 mg/kg/injection, vehicle: saline.
Where [5] appears, read: dose: 3.0 mg/kg/injection, vehicle: saline.
[6] abbreviates: dose: 6.0 mg/kg/injection, vehicle: saline.
The mark [7] stands for this setting: dose: 12.0 mg/kg/injection, vehicle: saline.
Setting [8] is: dose: 62.5 mg/kg/injection, vehicle: saline.
[9] abbreviates: dose: 150.0 mg/kg/injection, vehicle: saline.
Where [10] appears, read: dose: 15.0 mg/kg/injection, vehicle: saline.
Where [11] appears, read: dose: 30.0 mg/kg/injection, vehicle: saline.
Setting [12] is: dose: 60.0 mg/kg/injection, vehicle: saline.
Where [13] appears, read: dose: 25.0 mg/kg/injection, vehicle: saline.
[14] abbreviates: dose: 50.0 mg/kg/injection, vehicle: saline.
The mark [15] stands for this setting: dose: 100.0 mg/kg/injection, vehicle: saline.
Where [16] appears, read: dose: 200.0 mg/kg/injection, vehicle: saline.
[17] abbreviates: dose: 8.0 mg/kg/injection, vehicle: saline.
[18] abbreviates: dose: 16.0 mg/kg/injection, vehicle: saline.

The structures appear in SMILES notation. Values joined by “and” are separate entries in the source; they are usually repeats but may differ in a detail not shown here. Equal values may be shown once. Inconclusive results and toxic doses are left out. Starred links: 1 amine or outer side, 2 acyl side, 3 side chain; linkers in the order of their positions; H or OH if unused. Positions of bridges follow the written chain, without caps; N, C: chain ends. Non-standard residues stand in square brackets, D forms with d. Residues, ends and D or L forms follow the SMILES beside them. Chains are numbered I, II in the order given. Actinocin(9to1) = Cc1c2oc3c(C)ccc(C(=O)[*:1])c3nc-2c(C(=O)[*:2])c(N)c1=O; aThr = C[C@H](O)[C@H](N)C(=O)O; NMeV = CN[C@H](C(=O)O)C(C)C; Sar = CNCC(=O)O

Turning to `CCOC(=O)c1[nH]c2ccccc2c1CN(CCCl)CCCl`, the T/C by setting is: under setting [1], 96 % of control; under setting [2], 111 % of control.

`C[C@@H]1C[C@@H]([C@H](O)CC2CC(=O)NC(=O)C2)C(=O)[C@@H](C)C1`: the T/C under setting [3] is 93 % of control and 94 % of control; the T/C under setting [1] is 88 % of control and 100 % of control; the T/C under setting [2] is 100 % of control; the T/C (dose: 40.0 mg/kg/injection, vehicle: saline) was 111 % of control.

For `CN(C)c1ccc(/C=C\c2ccnc3ccccc23)cc1`, the T/C runs as follows: under setting [4], 100 % of control; under setting [5], 100 % of control; under setting [6], 100 % of control; under setting [7], 105 % of control.

As for `CCCCNc1ncnc2c1cnn2C`, the T/C by setting is: (dose: 15.6 mg/kg/injection, vehicle: saline) 105 % of control; (dose: 31.3 mg/kg/injection, vehicle: saline) 110 % of control; under setting [8], 95 % of control and 110 % of control.

On to `C[C@H](N)C(=O)N[C@@H]1[C@H]2C(=C(O)C[C@@H](O)[C@@H]2O)C(=O)O[C@@H]1C`, for which the T/C was 112 % of control under setting [9]; 150 % of control (dose: 600.0 mg/kg/injection, vehicle: saline); 183 % of control (dose: 1200.0 mg/kg/injection, vehicle: saline).

Take `C[N+](C)(C)c1ncnc2nc[nH]c12`: the T/C was 90 % of control under setting [10]; 100 % of control under setting [11]; 90 % of control and 100 % of control under setting [12]; 105 % of control and 113 % of control (dose: 120.0 mg/kg/injection, vehicle: saline).

Consider `CC(=O)N(C)C`, for which the T/C under setting [8] is 95 % of control and 120 % of control; the T/C (dose: 125.0 mg/kg/injection, vehicle: saline) is 90 % of control and 95 % of control; the T/C (dose: 250.0 mg/kg/injection, vehicle: saline) was 105 % of control and 110 % of control; the T/C (dose: 500.0 mg/kg/injection, vehicle: saline) is 110 % of control.

Turning to `CN(C)/N=N/c1nc[nH]c1C(N)=O`, the T/C under setting [13] was 100 % of control; the T/C under setting [14] was 90 % of control; the T/C under setting [15] was 105 % of control and 109 % of control; the T/C under setting [16] is 90 % of control and 100 % of control.

`O=C(Nc1ccc(C2=NCCN2)cc1)c1cccc(C(=O)Nc2ccc(C3=NCCN3)cc2)c1`: the T/C runs as follows: under setting [17], 155 % of control and 166 % of control; under setting [18], 185 % of control and 194 % of control; (dose: 32.0 mg/kg/injection, vehicle: saline) 200 % of control and 238 % of control; (dose: 64.0 mg/kg/injection, vehicle: saline) 250 % of control and 255 % of control.

With `NC(Cc1c[nH]c2ccc(N(CCCl)CCCl)cc12)C(=O)O` (stereo unspecified), the T/C (dose: 0.5 mg/kg/injection, vehicle: saline) is 104 % of control.

As to `CC(=O)Nc1ccc2nc3ccc(NC(C)=O)cc3[n+](-c3ccccc3)c2c1`, the T/C reads like this: under setting [13], 122 % of control; under setting [14], 110 % of control; under setting [15], 106 % of control; under setting [16], 100 % of control and 113 % of control.

Take `Oc1cc(CN(CCCl)CCCl)c(O)cc1CN(CCCl)CCCl`: the T/C by setting is: (dose: 0.63 mg/kg/injection, vehicle: saline) 104 % of control and 115 % of control; (dose: 1.25 mg/kg/injection, vehicle: saline) 121 % of control; under setting [3], 115 % of control.

`O=C(O)CCCc1ccc(N(CCCl)CCCl)cc1`: the T/C was 90 % of control and 95 % of control (dose: 3.13 mg/kg/injection, vehicle: saline); 91 % of control and 100 % of control (dose: 6.25 mg/kg/injection, vehicle: saline); 115 % of control (dose: 12.5 mg/kg/injection, vehicle: saline).

In the case of `Clc1ncnc2nc[nH]c12`, the T/C was 93 % of control (dose: 7.5 mg/kg/injection, vehicle: saline); 93 % of control under setting [10]; 93 % of control under setting [11]; 100 % of control under setting [12].

With `Nc1ncnc2[nH]ncc12`, the T/C is 100 % of control under setting [4]; 95 % of control and 100 % of control under setting [5]; 100 % of control and 105 % of control under setting [6]; 90 % of control and 110 % of control under setting [7].

As to `O=C(Nc1ccc(NC2=NCCN2)cc1)c1ccc(C(=O)Nc2ccc(NC3=NCCN3)cc2)cc1`, the T/C is 150 % of control (dose: 2.0 mg/kg/injection, vehicle: saline); 240 % of control and 250 % of control (dose: 4.0 mg/kg/injection, vehicle: saline); 250 % of control and 285 % of control under setting [17]; 115 % of control under setting [18].

Take `C[n+]1c2ccccc2nc2c(N)cc(N)cc21`: under setting [17], the T/C is 115 % of control.

Take `N#C[C@@H]1C2C=CC(CC2)[C@H]1C#N`: the T/C was 90 % of control (dose: 31.0 micrograms/kg/injection, vehicle: saline); 118 % of control (dose: 63.0 micrograms/kg/injection, vehicle: saline); 109 % of control (dose: 125.0 micrograms/kg/injection, vehicle: saline); 90 % of control (dose: 250.0 micrograms/kg/injection, vehicle: saline).

With `CS(=O)(=O)OCCCl`, the T/C (dose: 18.8 mg/kg/injection, vehicle: saline) was 94 % of control; the T/C (dose: 75.0 mg/kg/injection, vehicle: saline) was 90 % of control and 110 % of control; the T/C under setting [9] is 118 % of control and 121 % of control.

Turning to `O=C1C(NC(=O)C2CCCCC2)=C(N2CC2)C(=O)C(NC(=O)C2CCCCC2)=C1N1CC1`, the T/C under setting [13] was 90 % of control and 100 % of control; the T/C under setting [14] was 90 % of control and 100 % of control; the T/C under setting [15] is 90 % of control and 100 % of control; the T/C under setting [16] is 100 % of control and 110 % of control.

For `CC[C@]1(O)C[C@H]2CN(CCc3c([nH]c4ccccc34)[C@@](C(=O)OC)(c3cc4c(cc3OC)N(C=O)[C@H]3[C@@](O)(C(=O)OC)[C@H](OC(C)=O)[C@]5(CC)C=CCN6CC[C@]43[C@@H]65)C2)C1`, the T/C by setting is: (dose: 0.03 mg/kg/injection, vehicle: saline) 121 % of control and 123 % of control; (dose: 0.06 mg/kg/injection, vehicle: saline) 157 % of control; (dose: 0.12 mg/kg/injection, vehicle: saline) 161 % of control and 162 % of control; (dose: 0.25 mg/kg/injection, vehicle: saline) 90 % of control.

Take `O=c1cnn(C2OC(CO)C(O)C2O)c(=O)[nH]1` (stereo unspecified): the T/C under setting [16] was 100 % of control; the T/C (dose: 400.0 mg/kg/injection, vehicle: saline) is 100 % of control; the T/C (dose: 800.0 mg/kg/injection, vehicle: saline) was 91 % of control.

For `Cc1c2oc3c(C)ccc(C(=O)N[C@@H]4C(=O)N[C@H](C(C)C)C(=O)N5CCC[C@H]5C(=O)N(C)CC(=O)N(C)[C@@H](C(C)C)C(=O)O[C@H]4C)c3nc-2c(C(=O)N[C@@H]2C(=O)N[C@H](C(C)C)C(=O)N3CCC[C@H]3C(=O)N(C)CC(=O)N(C)[C@@H](C(C)C)C(=O)O[C@H]2C)c(N)c1=O` (I: [aThr][dV]P[Sar][NMeV] / II: [aThr][dV]P[Sar][NMeV]; ester I:1-I:C, II:1-II:C; linker I:N-II:N via Actinocin(9to1)), the T/C runs as follows: (dose: 25.0 micrograms/kg/injection, vehicle: other) 160 % of control; (dose: 50.0 micrograms/kg/injection, vehicle: other) 190 % of control.

The values above are taken from PubChem BioAssay AID204 (DTP/NCI, 2004).
